Reference: the supplement of paper PMC10307832

Compound: C[C@@H](Oc1cc(-c2cnn(C3CCNCC3)c2)cnc1N)c1c(Cl)ccc(F)c1Cl [Crizotinib] + Cc1nc(NC(=O)N2CCC[C@H]2C(N)=O)sc1-c1ccnc(C(C)(C)C(F)(F)F)c1 [Alpelisib] (partner 2 µM)
Test: relative viability (nuclei count vs DMSO), 5 days (fraction); higher = more cells survive
Settings: first compound 0.01 µM
Method in brief: (§1)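 Nuclei were stained with Hoechst during a one-step fixation (final 0.05% Triton X-100, 1% formaldehyde, 1 ug/ml Hoechst) carried out 5 days after dosing, then counted on 4× images. The cells, lung cancer lines in 1536-well plates, had been dosed by pin tool the day after seeding with one drug alone or a fixed anchor-drug dose plus five library-drug doses (not always all listed) in √10 steps. Relative viability is the nuclei count in treated wells divided by that in vehicle wells, and each value is the median of duplicate plates.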

Cell Line | relative viability
NCI-H1792 | 0.627
NCI-H1915 | 1.08
NCI-H1944 | 0.787
NCI-H1975 | 0.682
NCI-H1993 | 0.669
NCI-H2009 | 1.16
NCI-H2023 | 0.523
NCI-H2085 | 0.954
NCI-H2087 | 1.02
NCI-H2126 | 0.719
NCI-H2347 | 1.04
NCI-H2405 | 0.74
NCI-H3122 | 0.729
PC-3 [JPC-3] | 0.959
PC-14 | 0.914
RERF-LC-KJ | 0.702

Same assay, conditions: first compound 0.03162 µM

Cell Line | relative viability
NCI-H23 | 0.662
NCI-H358 | 0.802
NCI-H441 | 0.648
NCI-H460 | 0.404
NCI-H520 | 0.92
NCI-H596 | 0.528
NCI-H647 | 1.16
NCI-H650 | 1.2
NCI-H661 | 0.684
NCI-H1355 | 0.806
NCI-H1395 | 0.928
NCI-H1437 | 0.973
NCI-H1651 | 0.933
NCI-H1734 | 0.646
NCI-H1755 | 0.844
NCI-H1792 | 0.789
NCI-H1915 | 1.08
NCI-H1975 | 0.683
NCI-H1993 | 0.625
NCI-H2009 | 1.16
NCI-H2023 | 0.611
NCI-H2085 | 1.02
NCI-H2126 | 0.782
NCI-H2347 | 1.03
NCI-H2405 | 0.762
NCI-H3122 | 0.667
PC-3 [JPC-3] | 1.04
PC-14 | 0.921
RERF-LC-KJ | 0.847

Same assay, conditions: first compound 0.1 µM

Cell Line | relative viability
NCI-H23 | 0.572
NCI-H322M | 0.773
NCI-H358 | 0.798
NCI-H441 | 0.859
NCI-H460 | 0.46
NCI-H520 | 0.891
NCI-H596 | 0.509
NCI-H647 | 1.02
NCI-H650 | 1.06
NCI-H661 | 0.615
NCI-H838 | 1.03
NCI-H1355 | 0.857
NCI-H1395 | 1.09
NCI-H1437 | 0.925
NCI-H1651 | 0.858
NCI-H1666 | 1

Cell Line | relative viability
NCI-H1734 | 0.661
NCI-H1755 | 0.938
NCI-H1792 | 0.658
NCI-H1915 | 1.14
NCI-H1944 | 0.804
NCI-H1975 | 0.673
NCI-H1993 | 0.652
NCI-H2023 | 0.637
NCI-H2126 | 0.714
NCI-H2347 | 1.03
NCI-H2405 | 0.69
NCI-H3122 | 0.857
PC-3 [JPC-3] | 1.05
PC-14 | 0.931
RERF-LC-KJ | 0.82

Same assay, conditions: first compound 0.3162 µM

Cell Line | relative viability
NCI-H322M | 0.916
NCI-H358 | 0.852
NCI-H460 | 0.504
NCI-H520 | 1.07
NCI-H596 | 0.564
NCI-H647 | 0.933
NCI-H650 | 1.06
NCI-H661 | 0.699
NCI-H1355 | 0.849
NCI-H1395 | 1.11
NCI-H1437 | 0.938
NCI-H1666 | 0.984
NCI-H1755 | 0.902
NCI-H1792 | 0.663
NCI-H1944 | 0.808
NCI-H1975 | 0.689
NCI-H1993 | 0.715
NCI-H2009 | 1.12
NCI-H2023 | 0.503
NCI-H2085 | 1.05
NCI-H2126 | 0.708
NCI-H2347 | 0.978
NCI-H2405 | 0.818
NCI-H3122 | 0.867
PC-3 [JPC-3] | 0.998
PC-14 | 0.845
RERF-LC-KJ | 0.816

Same assay, conditions: first compound 1 µM

Cell Line | relative viability
NCI-H23 | 0.724
NCI-H322M | 0.789
NCI-H358 | 0.759
NCI-H441 | 0.711
NCI-H460 | 0.442
NCI-H520 | 0.962
NCI-H596 | 0.481
NCI-H647 | 1.01
NCI-H650 | 1.17
NCI-H661 | 0.725
NCI-H838 | 0.964
NCI-H1355 | 0.878
NCI-H1395 | 1.26
NCI-H1437 | 0.907
NCI-H1651 | 0.965
NCI-H1666 | 0.959
NCI-H1734 | 0.633

Cell Line | relative viability
NCI-H1755 | 0.959
NCI-H1792 | 0.726
NCI-H1915 | 1.09
NCI-H1944 | 0.861
NCI-H1975 | 0.68
NCI-H1993 | 0.737
NCI-H2009 | 1.09
NCI-H2023 | 0.499
NCI-H2085 | 0.954
NCI-H2087 | 1.21
NCI-H2126 | 0.79
NCI-H2347 | 0.996
NCI-H2405 | 0.857
NCI-H3122 | 0.796
PC-3 [JPC-3] | 1.07
PC-14 | 0.911

Compound: CC(C)C[C@H](NC(=O)[C@H](CCc1ccccc1)NC(=O)CN1CCOCC1)C(=O)N[C@@H](Cc1ccccc1)C(=O)N[C@@H](CC(C)C)C(=O)[C@@]1(C)CO1 [Carfilzomib] + Nc1nc2[nH]cc(CCc3ccc(C(=O)N[C@@H](CCC(=O)O)C(=O)O)cc3)c2c(=O)[nH]1 [Pemetrexed] (partner 0.2 µM)
Test: as above
Settings: first compound 0.001 µM
Method in brief: as §1

Cell Line | relative viability
NCI-H23 | 0.532
NCI-H322M | 0.592
NCI-H358 | 0.169
NCI-H441 | 0.26
NCI-H460 | 0.0648
NCI-H520 | 0.664
NCI-H596 | 0.486
NCI-H647 | 0.193
NCI-H650 | 0.954
NCI-H661 | 0.925
NCI-H838 | 0.268
NCI-H1355 | 1.01
NCI-H1437 | 0.282
NCI-H1651 | 0.561
NCI-H1666 | 0.896
NCI-H1734 | 0.398
NCI-H1755 | 0.42
NCI-H1915 | 0.559
